{
  "source": "the NIST ThermoML archive (doi:10.1016/j.jct.2010.04.011)",
  "experiment": "activity coefficient (dimensionless); of the first substance listed, at infinite dilution; xn = mol fraction of the nth substance listed",
  "conditions": "298 K, Chromatography, x1 = 0",
  "note": "Numbers after ± are expanded uncertainties.",
  "data": [
    {"smiles": "C#CCCCC", "note": "[1-hexyne] + C[S+](C)[O-]", "values": [
      {"measurement": "activity coefficient", "setting": "101 kPa, Liquid", "result": "4.1 ± 0.8"}
    ]},
    {"smiles": "Cc1ccc(C(C)C)cc1", "note": "[1-(1-methylethyl)-4-methylbenzene] + C[S+](C)[O-]", "values": [
      {"measurement": "activity coefficient", "setting": "101 kPa, Liquid", "result": "15.1 ± 3.1"}
    ]},
    {"smiles": "C#CCCCCC", "note": "[1-heptyne] + C[S+](C)[O-]", "values": [
      {"measurement": "activity coefficient", "setting": "101 kPa, Liquid", "result": "6.9 ± 1.4"}
    ]},
    {"smiles": "ClC(Cl)=C(Cl)Cl", "note": "[tetrachloroethene] + C[S+](C)[O-]", "values": [
      {"measurement": "activity coefficient", "setting": "101 kPa, Liquid", "result": "10.5 ± 2.1"}
    ]},
    {"smiles": "C=CCCC=C", "note": "[1,5-hexadiene] + C[S+](C)[O-]", "values": [
      {"measurement": "activity coefficient", "setting": "101 kPa, Liquid", "result": "11.6 ± 2.4"}
    ]},
    {"smiles": "C1CCCCCCC1", "note": "[cyclooctane] + C[S+](C)[O-]", "values": [
      {"measurement": "activity coefficient", "setting": "101 kPa, Liquid", "result": "63.3 ± 13"}
    ]},
    {"smiles": "C=CCCC=C", "note": "[1,5-hexadiene] + CCCCCCCCCCCCCCCC", "values": [
      {"measurement": "activity coefficient", "setting": "101 kPa, Liquid", "result": "0.8 ± 0.16"}
    ]},
    {"smiles": "ClC(Cl)(Cl)Br", "note": "[bromotrichloromethane] + C[S+](C)[O-]", "values": [
      {"measurement": "activity coefficient", "setting": "101 kPa, Liquid", "result": "2.1 ± 0.4"}
    ]},
    {"smiles": "C1=CCCCC1", "note": "[cyclohexene] + C[S+](C)[O-]", "values": [
      {"measurement": "activity coefficient", "setting": "101 kPa, Liquid", "result": "14.9 ± 3"}
    ]},
    {"smiles": "C1CCCCCCC1", "note": "[cyclooctane] + CCCCCCCCCCCCCCCC", "values": [
      {"measurement": "activity coefficient", "setting": "Gas", "result": "0.96 ± 0.19"}
    ]},
    {"smiles": "C#CCCCCCC", "note": "[1-octyne] + C[S+](C)[O-]", "values": [
      {"measurement": "activity coefficient", "setting": "101 kPa, Liquid", "result": "10.2 ± 2.1"}
    ]},
    {"smiles": "C=CC1CC=CCC1", "note": "(configuration not stated) [4-ethenylcyclohexene] + C[S+](C)[O-]", "values": [
      {"measurement": "activity coefficient", "setting": "101 kPa, Liquid", "result": "20.7 ± 4.2"}
    ]},
    {"smiles": "CC1CCCCC1", "note": "[methylcyclohexane] + C[S+](C)[O-]", "values": [
      {"measurement": "activity coefficient", "setting": "101 kPa, Liquid", "result": "49.2 ± 10"}
    ]},
    {"smiles": "C=CC1CC=CCC1", "note": "(configuration not stated) [4-ethenylcyclohexene] + CCCCCCCCCCCCCCCC", "values": [
      {"measurement": "activity coefficient", "setting": "Gas", "result": "0.96 ± 0.19"}
    ]},
    {"smiles": "C1=CCCC1", "note": "[cyclopentene] + C[S+](C)[O-]", "values": [
      {"measurement": "activity coefficient", "setting": "101 kPa, Liquid", "result": "7 ± 1.4"}
    ]},
    {"smiles": "C1=CC=CCC=C1", "note": "[1,3,5-cycloheptatriene] + C[S+](C)[O-]", "values": [
      {"measurement": "activity coefficient", "setting": "101 kPa, Liquid", "result": "5.7 ± 1.2"}
    ]},
    {"smiles": "CC1CCCC1", "note": "[methylcyclopentane] + C[S+](C)[O-]", "values": [
      {"measurement": "activity coefficient", "setting": "101 kPa, Liquid", "result": "29.5 ± 6"}
    ]}
  ]
}
